Source: ChEMBL document CHEMBL5036339, “Synthesis and biological evaluation of indole-based peptidomimetics as antibacterial agents against Gram-positive bacteria” (Eur J Med Chem, 2021)
Converted amounts (≈) assume the structure as drawn. The source made the active and inactive calls. The calls are words filed in the database; no cut-off is given here.

Tests used:
Staphylococcus aureus [1] = assay: Antibacterial activity against Staphylococcus aureus ATCC29213 assessed as reduction in bacterial growth; assay type: functional
Staphylococcus aureus [2] = assay: Antibacterial activity against methicillin-resistant Staphylococcus aureus N315 assessed as reduction in bacterial growth; assay type: functional
Staphylococcus aureus [3] = assay: Antibacterial activity against methicillin-resistant Staphylococcus aureus NCTC 10442 assessed as reduction in bacterial growth; assay type: functional
Escherichia coli = assay: Antibacterial activity against Escherichia coli ATCC25922 assessed as reduction in bacterial growth; assay type: functional
[4] = Hemolytic activity in rabbit erythrocytes assessed as concentration required to cause 50% hemolysis; assay type: ADME, cell-based, Oryctolagus cuniculus, Erythrocyte
Staphylococcus aureus [5] = assay: Bactericidal activity against Staphylococcus aureus NCTC 10442 assessed as log reduction in bacterial growth at 4X MIC measured within 0.5 hr by time-kill kinetic assay; assay type: functional; details: time hrs <=0.5
Staphylococcus aureus [6] = assay: In vivo antibacterial activity against Staphylococcus aureus ATCC29213 in mouse bacterial keratitis model assessed as log reduction in bacterial load in infected cornea at 5%,TOP after 24 hour infection; assay type: functional, organism-based
Staphylococcus aureus [7] = assay: Induction of drug resistance in Staphylococcus aureus ATCC29213 assessed as reduction in bacterial growth at 0.5 times MIC measured after 24 hr; assay type: functional, organism-based

Question: For CC(C)=CCC/C(C)=C/Cn1cc(CC(=O)NCCCNC(=N)N)c2ccccc21, which MIC (Staphylococcus aureus [1]) is on record?
Answer: 1.56 µg/mL (≈ 3.81 µM)

Question: And the MIC (Staphylococcus aureus [2])?
Answer: 1.56 µg/mL (≈ 3.81 µM)

Question: What about the MIC (Staphylococcus aureus [3]) of the same compound?
Answer: 1.56 µg/mL (≈ 3.81 µM)

Question: What about the MIC (Escherichia coli) of the same compound?
Answer: 12.5 µg/mL (≈ 30.5 µM)

Question: What about the HC50 [4] of the same compound?
Answer: 733 µg/mL

Question: Which MIC (Staphylococcus aureus [1]) does the source give for COC(=O)[C@H](Cc1c[nH]cn1)NC(=O)Cc1cn(C/C=C(\C)CCC=C(C)C)c2ccccc12 here?
Answer: > 50 µg/mL

Question: And the MIC (Staphylococcus aureus [2])?
Answer: > 50 µg/mL

Question: What about the MIC (Staphylococcus aureus [3]) of the same compound?
Answer: > 50 µg/mL

Question: And the MIC (Escherichia coli)?
Answer: > 100 µg/mL

Question: What about the HC50 [4] of the same compound?
Answer: > 200 µg/mL

Question: What does the source list for CN[C@H](CC(C)C)C(=O)N[C@H]1C(=O)N[C@@H](CC(N)=O)C(=O)N[C@H]2C(=O)N[C@H]3C(=O)N[C@H](C(=O)N[C@H](C(=O)O)c4cc(O)cc(O)c4-c4cc3ccc4O)[C@H](O)c3ccc(c(Cl)c3)Oc3cc2cc(c3O[C@@H]2O[C@H](CO)[C@@H](O)[C@H](O)[C@H]2O[C@H]2C[C@](C)(N)[C@H](O)[C@H](C)O2)Oc2ccc(cc2Cl)[C@H]1O [VANCOMYCIN]?
Answer: MIC (Staphylococcus aureus [1]): 0.78 µg/mL (≈ 0.538 µM); MIC (Staphylococcus aureus [2]): 1.56 µg/mL (≈ 1.08 µM); MIC (Staphylococcus aureus [3]): 1.56 µg/mL (≈ 1.08 µM); log reduction (Staphylococcus aureus [5]): 0.5 log10 CFU/mL; Activity (Staphylococcus aureus [6]): Active

Question: What does the source list for COC(=O)[C@H](CCCNC(=N)N)NC(=O)Cc1cn(CC=C(C)C)c2ccccc12?
Answer: MIC (Staphylococcus aureus [1]): 50 µg/mL (≈ 121 µM); MIC (Staphylococcus aureus [2]): 50 µg/mL (≈ 121 µM); MIC (Staphylococcus aureus [3]): 50 µg/mL (≈ 121 µM); MIC (Escherichia coli): > 100 µg/mL; HC50 [4]: > 200 µg/mL

Question: For CCn1cc(C(=O)O)c(=O)c2cc(F)c(N3CCNCC3)cc21, which Activity (Staphylococcus aureus [7]) is on record?
Answer: Active

Question: What does the source list for CC(C)=CCC/C(C)=C/Cn1cc(CC(=O)NCCCN(C)C)c2ccccc21?
Answer: MIC (Staphylococcus aureus [1]): 6.25 µg/mL (≈ 15.8 µM); MIC (Staphylococcus aureus [2]): 3.12 µg/mL (≈ 7.9 µM); MIC (Staphylococcus aureus [3]): 6.25 µg/mL (≈ 15.8 µM); MIC (Escherichia coli): 12.5 µg/mL (≈ 31.6 µM); HC50 [4]: 55.1 µg/mL

Question: With CC(C)=CCC/C(C)=C/Cn1cc(CC(=O)N[C@@H](CCCNC(=N)N)C(N)=O)c2ccccc21 as the compound, how does the MIC (Staphylococcus aureus [1]) read?
Answer: 3.12 µg/mL (≈ 6.7 µM)

Question: And the MIC (Staphylococcus aureus [2])?
Answer: 3.12 µg/mL (≈ 6.7 µM)

Question: And the MIC (Staphylococcus aureus [3])?
Answer: 3.12 µg/mL (≈ 6.7 µM)

Question: What about the MIC (Escherichia coli) of the same compound?
Answer: 25 µg/mL (≈ 53.6 µM)

Question: What about the HC50 [4] of the same compound?
Answer: 119 µg/mL

Question: What does the source list for CCCCCCCCCCn1cc(CC(=O)NCCN(CCN)CCN)c2ccccc21?
Answer: MIC (Staphylococcus aureus [1]): 1.56 µg/mL (≈ 3.52 µM); MIC (Staphylococcus aureus [2]): 1.56 µg/mL (≈ 3.52 µM); MIC (Staphylococcus aureus [3]): 1.56 µg/mL (≈ 3.52 µM); MIC (Escherichia coli): 12.5 µg/mL (≈ 28.2 µM); HC50 [4]: 95.9 µg/mL

Question: Which results are given for CC(C)=CCn1cc(CC(=O)NCCCNC(=N)N)c2ccccc21?
Answer: MIC (Staphylococcus aureus [1]): 50 µg/mL (≈ 146 µM); MIC (Staphylococcus aureus [2]): 50 µg/mL (≈ 146 µM); MIC (Staphylococcus aureus [3]): 50 µg/mL (≈ 146 µM); MIC (Escherichia coli): > 100 µg/mL; HC50 [4]: > 200 µg/mL

Question: With CC(C)=CCC/C(C)=C/Cn1cc(CC(=O)NCCCN)c2ccccc21 as the compound, how does the MIC (Staphylococcus aureus [1]) read?
Answer: 12.5 µg/mL (≈ 34 µM)

Question: What about the MIC (Staphylococcus aureus [2]) of the same compound?
Answer: 6.25 µg/mL (≈ 17 µM)

Question: And the MIC (Staphylococcus aureus [3])?
Answer: 12.5 µg/mL (≈ 34 µM)

Question: And the MIC (Escherichia coli)?
Answer: 12.5 µg/mL (≈ 34 µM)

Question: What about the HC50 [4] of the same compound?
Answer: 178 µg/mL

Question: With COC(=O)[C@H](CCCNC(=N)N)NC(=O)Cc1cn(C/C=C(\C)CCC=C(C)C)c2ccccc12 as the compound, how does the MIC (Staphylococcus aureus [1]) read?
Answer: 3.12 µg/mL (≈ 6.49 µM)

Question: What about the MIC (Staphylococcus aureus [2]) of the same compound?
Answer: 3.12 µg/mL (≈ 6.49 µM)

Question: What about the MIC (Staphylococcus aureus [3]) of the same compound?
Answer: 3.12 µg/mL (≈ 6.49 µM)

Question: What about the MIC (Escherichia coli) of the same compound?
Answer: 12.5 µg/mL (≈ 26 µM)

Question: And the HC50 [4]?
Answer: 58.8 µg/mL

Question: With CC(C)=CCC/C(C)=C/Cn1cc(CC(=O)N[C@@H](CCCNC(=N)N)C(=O)N[C@@H](CCCNC(=N)N)C(N)=O)c2ccccc21 as the compound, how does the MIC (Staphylococcus aureus [1]) read?
Answer: 3.12 µg/mL (≈ 5.02 µM)

Question: And the MIC (Staphylococcus aureus [2])?
Answer: 3.12 µg/mL (≈ 5.02 µM)

Question: What about the MIC (Staphylococcus aureus [3]) of the same compound?
Answer: 3.12 µg/mL (≈ 5.02 µM)

Question: What about the MIC (Escherichia coli) of the same compound?
Answer: 50 µg/mL (≈ 80.3 µM)

Question: What about the HC50 [4] of the same compound?
Answer: > 200 µg/mL

Question: With CC(C)=CCn1cc(CC(=O)N[C@@H](CCCNC(=N)N)C(N)=O)c2ccccc21 as the compound, how does the MIC (Staphylococcus aureus [1]) read?
Answer: > 50 µg/mL

Question: What about the MIC (Staphylococcus aureus [2]) of the same compound?
Answer: > 50 µg/mL

Question: What about the MIC (Staphylococcus aureus [3]) of the same compound?
Answer: > 50 µg/mL

Question: What about the MIC (Escherichia coli) of the same compound?
Answer: > 100 µg/mL

Question: What about the HC50 [4] of the same compound?
Answer: > 200 µg/mL

Question: Which results are given for CC(C)=CCC/C(C)=C/Cn1cc(CC(=O)NCCN(CCN)CCN)c2ccccc21?
Answer: MIC (Staphylococcus aureus [1]): 1.56 µg/mL (≈ 3.55 µM); MIC (Staphylococcus aureus [2]): 1.56 µg/mL (≈ 3.55 µM); MIC (Staphylococcus aureus [3]): 1.56 µg/mL (≈ 3.55 µM); MIC (Escherichia coli): 25 µg/mL (≈ 56.9 µM); HC50 [4]: 208 µg/mL

Question: With NC[C@H]1O[C@H](O[C@H]2[C@H](O)[C@@H](O[C@H]3O[C@H](CO)[C@@H](O)[C@H](N)[C@H]3O)[C@H](N)C[C@@H]2N)[C@H](O)[C@@H](O)[C@@H]1O [KANAMYCIN] as the compound, how does the MIC (Escherichia coli) read?
Answer: 6.25 µg/mL (≈ 12.9 µM)

Question: Which results are given for CC(C)=CCC/C(C)=C/Cn1cc(CC(=O)NCCCN2CCCC2)c2ccccc21?
Answer: MIC (Staphylococcus aureus [1]): 6.25 µg/mL (≈ 14.8 µM); MIC (Staphylococcus aureus [2]): 6.25 µg/mL (≈ 14.8 µM); MIC (Staphylococcus aureus [3]): 6.25 µg/mL (≈ 14.8 µM); MIC (Escherichia coli): 50 µg/mL (≈ 119 µM); HC50 [4]: 47.6 µg/mL

Question: Which MIC (Staphylococcus aureus [1]) does the source give for CCOC(=O)Cc1cn(C/C=C(\C)CCC=C(C)C)c2ccccc12 here?
Answer: > 50 µg/mL

Question: And the MIC (Staphylococcus aureus [2])?
Answer: > 50 µg/mL

Question: And the MIC (Staphylococcus aureus [3])?
Answer: > 50 µg/mL

Question: And the MIC (Escherichia coli)?
Answer: > 100 µg/mL

Question: And the HC50 [4]?
Answer: > 200 µg/mL

Question: Which results are given for COC(=O)[C@H](CCCNC(=N)N)NC(=O)[C@H](CCCNC(=N)N)NC(=O)[C@H](CCCNC(=N)N)NC(=O)Cc1cn(C/C=C(\C)CCC=C(C)C)c2ccccc12?
Answer: MIC (Staphylococcus aureus [1]): 3.12 µg/mL (≈ 3.94 µM); MIC (Staphylococcus aureus [2]): 1.56 µg/mL (≈ 1.96 µM); MIC (Staphylococcus aureus [3]): 1.56 µg/mL (≈ 1.96 µM); MIC (Escherichia coli): 50 µg/mL (≈ 63 µM); HC50 [4]: > 200 µg/mL

Question: With C=CCCCCCn1cc(CC(=O)NCCN(CCN)CCN)c2ccccc21 as the compound, how does the MIC (Staphylococcus aureus [1]) read?
Answer: 12.5 µg/mL (≈ 31.3 µM)

Question: And the MIC (Staphylococcus aureus [2])?
Answer: 12.5 µg/mL (≈ 31.3 µM)

Question: And the MIC (Staphylococcus aureus [3])?
Answer: 25 µg/mL (≈ 62.6 µM)

Question: What about the MIC (Escherichia coli) of the same compound?
Answer: > 50 µg/mL

Question: And the HC50 [4]?
Answer: 140 µg/mL

Question: What does the source list for CC(C)=CCn1cc(CC(=O)NCCCN)c2ccccc21?
Answer: MIC (Staphylococcus aureus [1]): > 50 µg/mL; MIC (Staphylococcus aureus [2]): > 50 µg/mL; MIC (Staphylococcus aureus [3]): > 50 µg/mL; MIC (Escherichia coli): > 100 µg/mL; HC50 [4]: > 200 µg/mL

Question: With CCCCN(CCCC)CCCNC(=O)Cc1cn(C/C=C(\C)CCC=C(C)C)c2ccccc12 as the compound, how does the MIC (Staphylococcus aureus [1]) read?
Answer: 3.12 µg/mL (≈ 6.51 µM)

Question: What about the MIC (Staphylococcus aureus [2]) of the same compound?
Answer: 3.12 µg/mL (≈ 6.51 µM)

Question: What about the MIC (Staphylococcus aureus [3]) of the same compound?
Answer: 3.12 µg/mL (≈ 6.51 µM)

Question: What about the MIC (Escherichia coli) of the same compound?
Answer: > 100 µg/mL

Question: And the HC50 [4]?
Answer: 72.3 µg/mL

Question: With COC(=O)[C@H](CCCNC(=N)N)NC(=O)[C@H](CCCNC(=N)N)NC(=O)Cc1cn(C/C=C(\C)CCC=C(C)C)c2ccccc12 as the compound, how does the MIC (Staphylococcus aureus [1]) read?
Answer: 3.12 µg/mL (≈ 4.9 µM)

Question: What about the MIC (Staphylococcus aureus [2]) of the same compound?
Answer: 3.12 µg/mL (≈ 4.9 µM)

Question: And the MIC (Staphylococcus aureus [3])?
Answer: 1.56 µg/mL (≈ 2.45 µM)

Question: And the MIC (Escherichia coli)?
Answer: 50 µg/mL (≈ 78.4 µM)

Question: What about the HC50 [4] of the same compound?
Answer: > 200 µg/mL

Question: With CCOC(=O)Cc1c[nH]c2ccccc12 as the compound, how does the MIC (Staphylococcus aureus [1]) read?
Answer: > 50 µg/mL

Question: What about the MIC (Staphylococcus aureus [2]) of the same compound?
Answer: > 50 µg/mL

Question: And the MIC (Staphylococcus aureus [3])?
Answer: > 50 µg/mL

Question: And the MIC (Escherichia coli)?
Answer: > 100 µg/mL

Question: What about the HC50 [4] of the same compound?
Answer: > 200 µg/mL
